Residues, ends and D or L forms follow the SMILES beside them.
Assays:
J774 macrophages = assay: in vitro macrophage uptake (endocytosis) of rho B-labeled peptides and lipopeptide complexes; assay type: cell-based, murine; settings: for mechanism of macrophage endocytosis (scavenger receptors): J774, 4 h or 22 h, G-HV21 and G-KV21 in the presence of HDL; for in vitro macrophage uptake, presence vs. absence of HDL: rho B-labeled peptides
Experimental: In Vitro Macrophage Uptake of GF9HDL and GA/E31HDL A quantitative in vitro macrophage assay of endo-cytosis of rho B-labeled HDL-mimicking lipopeptide complexes by J774 macrophage was performed as described. (18-20) Briefly, BALB/c murine macrophage J774A.1 cells (ATCC) were cultured at 37° C. with 5% CO2 in Dulbecco's modified Eagle's medium (Cellgro Mediatech, Manassas, Va.) with 2 mM glutamine, 100 U/mL penicillin, 0.1 mg/mL streptomycin, and 10% heat-inactivated fetal bovine serum (Cellgro Mediatech) and grown to approximately 90% confluency in 12-well tissue culture plates (Corning Costar, Corning, N.Y.).
Cells were washed twice using phosphate-buffered saline and lysed using Passive Lysis Buffer (Promega, Madison, Wis.). Rho B fluorescence was measured in the lysates with 544-nm excitation and 590-nm emission filters, using a Fluoroscan Ascent CF fluorescence microplate reader (Thermo Labsystems, Vantaa, Finland). Protein concentrations in the lysates were measured using Bradford reagent (Sigma-Aldrich) and an MRX microplate reader (Dynex Technologies, Chantilly, Va.) according to the manufacturer's recommended protocol.

[1] = system: human non-small cell lung cancer H292 xenograft; assay: H292 xenograft mouse model; assay type: in vivo, mice; settings: vs vehicle
Excerpt: (§1) PTX, paclitaxel. ****, P<0.0001 as compared with vehicle-treated animals.
(§2) PTX, paclitaxel. ****, p<0.0001 as compared with vehicle-treated animals.
(§3) Abbreviations: PTX, paclitaxel; PBS, phosphate-buffer saline.

[2] = system: human non-small cell lung cancer A549 xenograft; assay type: in vivo; settings: vs vehicle; for tumor growth: PTX 20 mg/kg as comparator
Experimental: as §1, §2, §3
Treatment persisted for 21 days. Mean tumor volumes are calculated and plotted. Body weighs are plotted.

[3] = system: TNF-alpha, IL-1beta and IL-6; assay: LPS-induced endotoxemia: in vivo serum cytokine release; design: species or system mouse; settings: free peptides, at this dose; serum 90 min after 30 mg/kg LPS
Experimental: One hour later, mice received i.p. injection of 30 mg/kg LPS from E. coli 055:B5 (Sigma). In some experiments, all formulations were i.p. administered 1 and 3 h after LPS injection. The viability of mice was examined hourly. Body weights were measured daily. In all of the animal experiments, blood samples were collected via a sub-mandibular (cheek) bleed at 90 min after administration of LPS. Statistical analysis of survival curves was performed by the Kaplan-Meier test. Comparisons were made using two-tailed Student's t test. The production of cytokines in serum was measured by a standard sandwich cytokine ELISA procedure using TNF-alpha, IL-1beta and IL-6 ELISA kits (Pierce Biotechnology, Thermo Scientific, Rockford, Ill.) according to the instructions of the manufacturer. Statistical significances in cytokine analysis ELISA data were determined by two-tailed Student's t test.
Naïve, female C57BL/6 mice at 8 to 10 weeks of age (18 to 21 g) from the Jackson Laboratory were randomly grouped (10 mice per group) and i.p. injected with vehicle or the indicated doses of dexamethasone (DEX), GF9, G-TE21, G-HV21 and G-KV21. One hour later, mice received i.p. injection of 30 mg/kg LPS from E. coli 055:B5 (Sigma). […] Body weights were measured daily. […] Statistical significances in cytokine analysis ELISA data were determined by two-tailed Student's t test.

CC(C)C[C@H](NC(=O)[C@H](Cc1ccccc1)NC(=O)CN)C(=O)N[C@@H](CO)C(=O)N[C@@H](CCCCN)C(=O)N[C@@H](CO)C(=O)N[C@@H](CC(C)C)C(=O)N[C@H](C(=O)N[C@@H](Cc1ccccc1)C(=O)NCC(=O)N[C@@H](CCC(=O)O)C(=O)N[C@@H](CCC(=O)O)C(=O)N[C@@H](CC[S+](C)[O-])C(=O)N[C@@H](CCCNC(=N)N)C(=O)N[C@@H](CC(=O)O)C(=O)N[C@@H](CCCNC(=N)N)C(=O)N[C@@H](C)C(=O)N[C@@H](CCCNC(=N)N)C(=O)N[C@@H](C)C(=O)N[C@@H](Cc1c[nH]cn1)C(=O)N[C@H](C(=O)O)C(C)C)C(C)C (stereo partly drawn) [G-HV21] (HELM PEPTIDE1{G.F.L.S.K.S.L.V.F.G.E.E.[CS(=O)CC[C@H](N[*:1])C(=O)[*:2]].R.D.R.A.R.A.H.V}$$$$V2.0)
mechanism of macrophage endocytosis (scavenger receptors) (J774 macrophages): SR-mediated in a time-dependent manner and is largely driven by SR-A
in vitro macrophage uptake, presence vs. absence of HDL (J774 macrophages): significantly increases
tumor growth [1]: significantly inhibit the tumor growth
average tumor weights [2]: significantly decrease the tumor weight
tumor growth [2]: significantly inhibit the tumor growth
LPS-stimulated cytokine production in vivo [3]: inhibit LPS-stimulated cytokine production in vivo

CC(C)C[C@H](NC(=O)[C@H](Cc1ccccc1)NC(=O)CN)C(=O)N[C@@H](CO)C(=O)N[C@@H](CCCCN)C(=O)N[C@@H](CO)C(=O)N[C@@H](CC(C)C)C(=O)N[C@H](C(=O)N[C@@H](Cc1ccccc1)C(=O)N[C@@H](Cc1c[nH]c2ccccc12)C(=O)N[C@@H](CCC(N)=O)C(=O)N[C@@H](CCC(=O)O)C(=O)N[C@@H](CCC(=O)O)C(=O)N[C@@H](CC[S+](C)[O-])C(=O)N[C@@H](CCC(=O)O)C(=O)N[C@@H](CC(C)C)C(=O)N[C@@H](Cc1ccc(O)cc1)C(=O)N[C@@H](CCCNC(=N)N)C(=O)N[C@@H](CCC(N)=O)C(=O)N[C@@H](CCCCN)C(=O)N[C@H](C(=O)O)C(C)C)C(C)C (stereo partly drawn) [G-KV21] (HELM PEPTIDE1{G.F.L.S.K.S.L.V.F.W.Q.E.E.[CS(=O)CC[C@H](N[*:1])C(=O)[*:2]].E.L.Y.R.Q.K.V}$$$$V2.0)
mechanism of macrophage endocytosis (scavenger receptors) (J774 macrophages): SR-mediated in a time-dependent manner and is largely driven by SR-A
in vitro macrophage uptake, presence vs. absence of HDL (J774 macrophages): significantly increases
tumor growth [1]: significantly inhibit the tumor growth
average tumor weights [2]: significantly decrease the tumor weight
tumor growth [2]: significantly inhibit the tumor growth
LPS-stimulated cytokine production in vivo [3]: inhibit LPS-stimulated cytokine production in vivo

From patent publication US20210322508A1, “PEPTIDES AND COMPOSITIONS FOR TARGETED TREATMENT AND IMAGING” (SIGNABLOK, INC., priority 2018, published 2021)
